The source made the active and inactive calls. No rule for the calls is given here.

This data set relates to CCRIS mutagenicity, Ames/micronucleus/aberration tests. Briefly: CCRIS mutagenicity studies.
Setting [1] is: Test System: AMES SALMONELLA TYPHIMURIUM, Strain/Indicator: TA98, Metabolic Activation: NONE, Method: PREINCUBATION
The mark [2] stands for this setting: Test System: AMES SALMONELLA TYPHIMURIUM, Strain/Indicator: TA100, Metabolic Activation: NONE, Method: PREINCUBATION
[3] abbreviates: Test System: MOUSE LYMPHOMA, Strain/Indicator: L5178Y (TK+/TK-), Metabolic Activation: NONE, Method: SUSPENSION/PLATE.

Turning to `CC(C)(C#N)N=NC(C)(C)C#N`, the mutagenic call was “inactive; negative” (Test System: AMES SALMONELLA TYPHIMURIUM, Strain/Indicator: TA98, Metabolic Activation: HAMSTER, LIVER, S-9, AROCLOR 1254, Method: PREINCUBATION); “inactive; negative” under setting [1]; “inactive; negative” (Test System: AMES SALMONELLA TYPHIMURIUM, Strain/Indicator: TA98, Metabolic Activation: RAT LIVER S-9, PHENOBARBITAL AND BETA-NAPHTHOFLAVONE, Method: PREINCUBATION); “inactive; negative” (Test System: AMES SALMONELLA TYPHIMURIUM, Strain/Indicator: TA98, Metabolic Activation: RAT, LIVER, S-9, AROCLOR 1254, Method: PREINCUBATION); “inactive; negative” (Test System: AMES SALMONELLA TYPHIMURIUM, Strain/Indicator: TA100, Metabolic Activation: HAMSTER, LIVER, S-9, AROCLOR 1254, Method: PREINCUBATION); “inactive; negative” under setting [2]. In addition, the mutagenic call by setting is: (Test System: AMES SALMONELLA TYPHIMURIUM, Strain/Indicator: TA100, Metabolic Activation: RAT LIVER S-9, PHENOBARBITAL AND BETA-NAPHTHOFLAVONE, Method: PREINCUBATION) “inactive; negative”; (Test System: AMES SALMONELLA TYPHIMURIUM, Strain/Indicator: TA100, Metabolic Activation: RAT, LIVER, S-9, AROCLOR 1254, Method: PREINCUBATION) “inactive; negative”; (Test System: AMES SALMONELLA TYPHIMURIUM, Strain/Indicator: TA1535, Metabolic Activation: HAMSTER, LIVER, S-9, AROCLOR 1254, Method: PREINCUBATION) “inactive; negative”; (Test System: AMES SALMONELLA TYPHIMURIUM, Strain/Indicator: TA1535, Metabolic Activation: NONE, Method: PREINCUBATION) “inactive; negative”; (Test System: AMES SALMONELLA TYPHIMURIUM, Strain/Indicator: TA1535, Metabolic Activation: RAT LIVER S-9, PHENOBARBITAL AND BETA-NAPHTHOFLAVONE, Method: PREINCUBATION) “inactive; negative”; (Test System: AMES SALMONELLA TYPHIMURIUM, Strain/Indicator: TA1535, Metabolic Activation: RAT, LIVER, S-9, AROCLOR 1254, Method: PREINCUBATION) “inactive; negative”. Further, the mutagenic call is, setting by setting: (Test System: AMES SALMONELLA TYPHIMURIUM, Strain/Indicator: TA1537, Metabolic Activation: HAMSTER, LIVER, S-9, AROCLOR 1254, Method: PREINCUBATION) “inactive; negative”; (Test System: AMES SALMONELLA TYPHIMURIUM, Strain/Indicator: TA1537, Metabolic Activation: NONE, Method: PREINCUBATION) “inactive; negative”; (Test System: AMES SALMONELLA TYPHIMURIUM, Strain/Indicator: TA1537, Metabolic Activation: RAT LIVER S-9, PHENOBARBITAL AND BETA-NAPHTHOFLAVONE, Method: PREINCUBATION) “inactive; negative”; (Test System: AMES SALMONELLA TYPHIMURIUM, Strain/Indicator: TA1537, Metabolic Activation: RAT, LIVER, S-9, AROCLOR 1254, Method: PREINCUBATION) “inactive; negative”; (Test System: AMES SALMONELLA TYPHIMURIUM, Strain/Indicator: TA1538, Metabolic Activation: HAMSTER, LIVER, S-9, AROCLOR 1254, Method: PREINCUBATION) “inactive; negative”; (Test System: AMES SALMONELLA TYPHIMURIUM, Strain/Indicator: TA1538, Metabolic Activation: NONE, Method: PREINCUBATION) “inactive; negative”. Moreover, the mutagenic call by setting is: (Test System: AMES SALMONELLA TYPHIMURIUM, Strain/Indicator: TA1538, Metabolic Activation: RAT LIVER S-9, PHENOBARBITAL AND BETA-NAPHTHOFLAVONE, Method: PREINCUBATION) “inactive; negative”; (Test System: AMES SALMONELLA TYPHIMURIUM, Strain/Indicator: TA1538, Metabolic Activation: RAT, LIVER, S-9, AROCLOR 1254, Method: PREINCUBATION) “inactive; negative”; (Test System: E.COLI, Strain/Indicator: WP2UVRA, Metabolic Activation: NONE, Method: PREINCUBATION) “inactive; negative”; (Test System: E.COLI, Strain/Indicator: WP2UVRA, Metabolic Activation: RAT LIVER S-9, PHENOBARBITAL AND BETA-NAPHTHOFLAVONE, Method: PREINCUBATION) “inactive; negative”; under setting [3], “inactive; negative. reevaluation of results: negative”; (Test System: MOUSE LYMPHOMA, Strain/Indicator: L5178Y (TK+/TK-), Metabolic Activation: RAT, LIVER, S-9, AROCLOR 1254, Method: SUSPENSION/PLATE) “inactive; negative. reevaluation of results: negative”.
Take `CC(=O)Nc1ccc2c(ccc3ccccc32)c1`: the mutagenic call is, setting by setting: (Test System: CHINESE HAMSTER OVARY, Strain/Indicator: AS52/6-THIOGUANINE, Metabolic Activation: NONE) “inactive; negative”; (Test System: CHINESE HAMSTER OVARY, Strain/Indicator: AS52/6-THIOGUANINE, Metabolic Activation: RAT LIVER S-9, 2-ACETYLAMINOFLUORINE) “active; positive”.
As to `N[C@@H](CCCCN/C=C/C=O)C(=O)O`, where the note is “Test System: AMES SALMONELLA TYPHIMURIUM, Strain/Indicator: HISD3052, Metabolic Activation: NONE, Method: STANDARD PLATE”, the mutagenic call was “active; positive”.
With `COP(=O)(OC)OC=C(Cl)Cl`, the mutagenic call reads like this: (End Point: IN VITRO CHROMOSOMAL ABERRATIONS, Test System: CHO CELLS, Metabolic Activation: NONE) “active; positive”; (End Point: IN VITRO CHROMOSOMAL ABERRATIONS, Test System: CHO CELLS, Metabolic Activation: RAT, LIVER, S-9, AROCLOR 1254) “active; positive”; (End Point: In vivo micronucleus, Test System: Erythrocytes, Species: Mouse, Strain/Sex: Males and females (Strain not identified by DPR), Route: Intraperitoneal) “inactive; negative”; (Test System: AMES SALMONELLA TYPHIMURIUM, Strain/Indicator: TA98, Metabolic Activation: HAMSTER, LIVER, S-9, AROCLOR 1254 (30%), Method: PREINCUBATION) “inactive; negative”; under setting [1], “inactive; negative”; (Test System: AMES SALMONELLA TYPHIMURIUM, Strain/Indicator: TA98, Metabolic Activation: RAT, LIVER, S-9, AROCLOR 1254 (30%), Method: PREINCUBATION) “inactive; negative”. The mutagenic call is, setting by setting: (Test System: AMES SALMONELLA TYPHIMURIUM, Strain/Indicator: TA100, Metabolic Activation: HAMSTER, LIVER, S-9, AROCLOR 1254 (30%), Method: PREINCUBATION) “active; positive”; under setting [2], “active; positive”; (Test System: AMES SALMONELLA TYPHIMURIUM, Strain/Indicator: TA100, Metabolic Activation: RAT, LIVER, S-9, AROCLOR 1254 (30%), Method: PREINCUBATION) “active; positive”; (Test System: AMES SALMONELLA TYPHIMURIUM, Strain/Indicator: TA100, Metabolic Activation: S-9, Method: STANDARD PLATE) “active; positive”; (Test System: CHINESE HAMSTER OVARY, Strain/Indicator: CHO-K1-BH4 (HGPRT)/6-THIOGUANINE, Metabolic Activation: NONE) “active; positive”; (Test System: CHINESE HAMSTER OVARY, Strain/Indicator: CHO-K1-BH4 (HGPRT)/6-THIOGUANINE, Metabolic Activation: S-9) “active; positive”. Besides, the mutagenic call is, setting by setting: (Test System: CHINESE HAMSTER V-79, Strain/Indicator: V-79/OUABAIN, Metabolic Activation: NONE) “inactive; negative”; (Test System: E. COLI, Strain/Indicator: WP2, Metabolic Activation: NONE, Method: FLUCTUATION) “active; positive”; (Test System: E. COLI, Strain/Indicator: WP2, Metabolic Activation: NONE, Method: PREINCUBATION) “active; positive”; (Test System: E. COLI, Strain/Indicator: WP2, Metabolic Activation: NONE, Method: STANDARD PLATE) “active; positive”; (Test System: E. COLI, Strain/Indicator: WP2, Metabolic Activation: RAT, LIVER, S-9, AROCLOR 1254, Method: STANDARD PLATE) “active; positive”; (Test System: E. COLI, Strain/Indicator: WP2 UVRA, Metabolic Activation: NONE, Method: FLUCTUATION) “active; positive”. Further, the mutagenic call runs as follows: (Test System: E. COLI, Strain/Indicator: WP2 UVRA, Metabolic Activation: NONE, Method: PREINCUBATION) “active; positive”; (Test System: E. COLI, Strain/Indicator: WP2 UVRA, Metabolic Activation: NONE, Method: STANDARD PLATE) “active; positive”; under setting [3], “active; positive”; (Test System: Mouse lymphoma, Strain/Indicator: L5178Y (TK+/TK-), Metabolic Activation: None) “active; positive”; (Test System: Mouse lymphoma, Strain/Indicator: L5178Y (TK+/TK-), Metabolic Activation: Rat, Liver, S-9) “active; positive”; (Test System: UDS HUMAN CELLS, Strain/Indicator: EUE LINE/THY INCORP, Metabolic Activation: NONE, Method: AUTORADIOGRAPHY) “active; positive”. Also, the mutagenic call by setting is: (Test System: UDS MOUSE FORESTOMACH EPITHELIUM, Strain/Indicator: THY INCORP, Metabolic Activation: NONE, Method: AUTORADIOGRAPHY) “inactive; negative”; (Test System: UDS RAT HEPATOCYTES, Strain/Indicator: BROMODEOXYURIDINE INCORP, Metabolic Activation: NONE, Method: FLOW CYTOMETRIC ANALYSIS) “inactive; negative”; (Test System: UDS RAT HEPATOCYTES, Strain/Indicator: THY INCORP, Metabolic Activation: NONE, Method: AUTORADIOGRAPHY) “inactive; negative”.

The values above are taken from PubChem BioAssay AID1259407 (Chemical Carcinogenesis Research Information System (CCRIS), 2018).
